{"source": "patent US20170168056A1", "about": "“METHODS AND COMPOSITIONS FOR DETECTING AND MODULATING CANCER CELLS” (Massachusetts Institute of Technology, priority 2015, published 2017)", "key": {"MDA-MB-231 cells [1]": {"system": "MDA-MB-231 cells", "test": "Proliferation assay (cell count) with combinations of paclitaxel and MEKi", "type": "cell-based, human", "details": "231-MENA and 231-MENA^INV cells"}, "MDA-MB-231 cells [2]": {"system": "MDA-MB-231 cells", "test": "Time-lapse microscopy of cell division", "type": "cell-based, human", "details": "for increase in time spent in cell division: 10 nM paclitaxel vs vehicle", "protocol": "In vitro imaging. Glass bottom dishes were coated with Co11agen at 0.1 mg/mL diluted in PBS for 1 hour at 37° C. Cells expressing different MENA isoform were treated with paclitaxel at 1, 10 or 100 nM or vehicle and immediately plated on the glass bottom dishes. 30 minutes later, cells were imaged overnight, with one image acquired every 10 minutes for 16 hours on a Nikon spinning disk with a 20× objective and an Andor/NeoZyla camera. Individual cells were manually tracked using ImageJ and Manual Tracking plug-in. Data were analyzed using the chemotaxis tool developed by IBIDI. For analysis of time spent in cell division, the time between when the mother cell first rounds up, to when both daughter cells have spread out on substrate was measured. The percentage of successful cell divisions was quantified by counting the number of cell divisions that lead to two surviving daughter cells. Data are pooled from at least 50 cells tracked in three independent experiments.\nOne of the key steps in paclitaxel-induced cell death is cell arrest in the G2/M phases of the cell cycle. […] Time-lapse microscopy was performed to study the cell division phenotypes in more detail, and imaged cells expressing MENA isoforms while adherent on collagen (FIGS. 35D, 35E, 35F)."}, "T47D cells": {"system": "T47D cells", "test": "Cell viability of T47D cells expressing ShCtrl or ShMENA after paclitaxel", "type": "cell-based, human", "details": "T47D ShMENA vs ShCtrl, 72 hours", "protocol": "Cell Culture. MDA-MB-231 cells were purchased directly from the ATCC in June 2012, where cell lines are authenticated by short tandem repeat profiling. These cells were not reauthenticated by our lab and were cultured in DMEM with 10% FBS (Hyclone). Cell line generation and FACS were performed as previously described (32). […] SUM159 cells were obtained from Joan Brugge's lab at Harvard Medical School (January 2011) and were not reauthenticated in our lab. SUM159 cells were cultured according to the ATCC protocols. T47D cells were purchased at ATCC, where cell lines are authenticated by short tandem repeat profiling. They were cultured according to the manufacturer's protocol, and not reauthenticated in our lab. […]\nMENA and MENA^INV are associated with increased survival during paclitaxel treatment in vitro. […] MENA and MENA^INV were determined to be widely expressed in all main breast cancer subtypes, as measured by mRNA from TCGA samples, as well as at the protein level by immunohistochemistry (FIGS. 28A, 28B, 28C), with slightly higher expression in patients with Her2+ breast cancer. […] Under the conditions we used, MENA11a co-migrates with the 80 kDa MENA, thus the intensity of the measured the 80 kDa MENA, detected with an antibody known to recognize all MENA isoforms, represents the total amount of 80 kDa MENA plus MENA11a in the cell lines that express both isoforms. […]"}, "Mena, Mena^INV": {"system": "Mena, Mena^INV", "test": "Mena and Mena^INV immunofluorescence in Control tumors from treated mice", "type": "in vivo, mouse", "details": "tissue sections of Control tumors from treated mice", "protocol": "Taxol treatment induces increased Mena protein expression in vitro and in vivo. As high level of Mena or Mena^INV expression correlated with low response to Taxo, we hypothesized that Taxol treatment might affect Mena expression. […]. After 72 h of treatment with the drug, the expression level of Mena was 70% higher than in vehicle-treated cells.\nImmunohistochemistry for Examples 16-22. Tumors dissected from NOD/SCID mice were fixed in 10% buffered formalin and embedded in paraffin. Tissue sections (5 μm thick) were deparaffinized followed by antigen retrieval using Citra Plus solution (Biogenex). After treatment with 3% H2O2, sections were blocked with serum, incubated with primary antibodies overnight at 4° C. and fluorescently labeled secondary antibodies at room temperature for 2 hours. Sections were stained using anti-MENA (1:500), biotinylated anti-MENA^INV (1:500), anti-CC3 (1:200), anti-Ki67 (1:200) and DAPI. Fluorochromes on secondary antibodies included AlexaFluor 488, 594 or 647 (Jackson Immunoresearch). Sections were mounted in Fluoromount mounting media and imaged at room temperature. […]\nPaclitaxel treatment selects for high MENA expression in vitro and in vivo. […] First, endogenous MENA expression by Western Blot in 5 breast cancer cell lines that were exposed to 100 nM of paclitaxel or a vehicle control were analyzed (FIG. 33A)."}, "[3]": {"system": "MDA-MB-231 xenograft tumors", "test": "Ki67 and cleaved caspase-3 immunostaining of xenograft tumor sections", "type": "in vivo, mouse", "details": "for proliferation (Ki67) in control tumors: MDA-MB-231 control tumors; for proliferation (Ki67) in control tumors / proliferation (Ki67) in Mena and Mena^INV tumors: vs vehicle; for proliferation (Ki67) in Mena and Mena^INV tumors: Mena- and Mena^INV-expressing tumors; for apoptosis (cleaved caspase-3, CC3): all three types of tumor", "from_the_text": "The effects of increased Mena/Mena^INV levels on taxol treatment in vitro (increased fractions of viable cells) and in vivo (resistance to anti-tumor growth effects) could arise from increased proliferation, decreased apoptosis or both. To evaluate the effects of Mena/Mena^INV on proliferation and cell death, tumor sections were stained with antibodies to Ki67 (a proliferation marker) and cleaved caspase-3 (apopotic marker). […] Therefore, elevated Mena/Mena^INV expression allows continued tumor growth in treated animals by blocking the anti-proliferative effects of taxol treatment.\nImmunohistochemistry for Examples 16-22. Tumors dissected from NOD/SCID mice were fixed in 10% buffered formalin and embedded in paraffin. Tissue sections (5 μm thick) were deparaffinized followed by antigen retrieval using Citra Plus solution (Biogenex). After treatment with 3% H2O2, sections were blocked with serum, incubated with primary antibodies overnight at 4° C. and fluorescently labeled secondary antibodies at room temperature for 2 hours. Sections were stained using anti-MENA (1:500), biotinylated anti-MENA^INV (1:500), anti-CC3 (1:200), anti-Ki67 (1:200) and DAPI. Fluorochromes on secondary antibodies included AlexaFluor 488, 594 or 647 (Jackson Immunoresearch). Sections were mounted in Fluoromount mounting media and imaged at room temperature. Z series of images were taken on a DeltaVision microscope using Softworx acquisition, an Olympus 40×1.3 NA plan apo objective and a Photometrics CoolSNAP HQ camera. At least 10 fields were captured for each tumor, with at least 3 tumors per tumor group.\nAs such, proliferation and apoptosis was examined by quantifying the intensity of cells positive for Ki67 and CC3, respectively by immunostaining."}}}
{"smiles": "CC(=O)O[C@H]1C(=O)[C@@]2(C)[C@H]([C@H](OC(=O)c3ccccc3)[C@]3(O)C[C@H](OC(=O)[C@H](O)[C@@H](NC(=O)c4ccccc4)c4ccccc4)C(C)=C1C3(C)C)[C@]1(OC(C)=O)CO[C@@H]1C[C@@H]2O", "note": "[paclitaxel]", "values": [{"measurement": "concentrations needed to obtain high levels of cell death relative to 231-Control cells", "setting": "MDA-MB-231 cells [1]", "value": "higher concentrations of each drug were needed"}, {"measurement": "decrease in the number of successful divisions", "setting": "MDA-MB-231 cells [2]; 231-Control cells, 10 nM paclitaxel", "value": 40, "unit": "%"}, {"measurement": "increase in time spent in cell division", "setting": "MDA-MB-231 cells [2]; 231-Control cells", "value": "four-fold"}, {"measurement": "increase in time spent in cell division", "setting": "MDA-MB-231 cells [2]; 231-MENA and 231-MENA^INV cells", "value": "two-fold"}, {"measurement": "successful cell divisions", "setting": "MDA-MB-231 cells [2]; paclitaxel treated 231-MENA and 231-MENA^INV cells", "value": "over 90%"}, {"measurement": "sensitivity to paclitaxel after reducing all MENA isoform levels", "setting": "T47D cells", "value": "more sensitive to paclitaxel"}, {"measurement": "Mena and Mena^INV levels in Control tumors compared to vehicle", "setting": "Mena, Mena^INV", "value": "significant increases in total MENA levels"}, {"measurement": "Mena and Mena^INV levels in Control tumors compared to vehicle", "setting": "Mena, Mena^INV; listed as Taxol", "value": "increase in expression of both global Mena levels and the Mena^INV isoform"}, {"measurement": "proliferation (Ki67) in control tumors", "setting": "[3]", "value": "decreased the amount of Ki67 staining"}, {"measurement": "proliferation (Ki67) in control tumors", "setting": "[3]; listed as Taxol", "value": "significantly decreased"}, {"measurement": "proliferation (Ki67) in Mena and Mena^INV tumors", "setting": "[3]", "value": "failed to decrease the numbers of Ki67-positive cells"}, {"measurement": "proliferation (Ki67) in Mena and Mena^INV tumors", "setting": "[3]; listed as Taxol", "value": "failed to decrease proliferation"}, {"measurement": "apoptosis (cleaved caspase-3, CC3)", "setting": "[3]", "value": "increase in cell death as marked by CC3 positive cells in all tumors"}, {"measurement": "apoptosis (cleaved caspase-3, CC3)", "setting": "[3]; listed as Taxol", "value": "similar, significant apoptotic responses"}]}
